Molecular target: TNFα (Homo sapiens, UniProt P01375)
Test: SPR on Biacore 4000, immobilised soluble TNFα
Assay type: binding
Conditions: concentration of up to 100 μM
Procedure: In another experiment, BIO8898 was tested against the immobilised soluble form of CD40L and the soluble form of TNFα by SPR on a Biacore 4000 machine.

Sequence of TNFα (P01375 77-233 limits assumed): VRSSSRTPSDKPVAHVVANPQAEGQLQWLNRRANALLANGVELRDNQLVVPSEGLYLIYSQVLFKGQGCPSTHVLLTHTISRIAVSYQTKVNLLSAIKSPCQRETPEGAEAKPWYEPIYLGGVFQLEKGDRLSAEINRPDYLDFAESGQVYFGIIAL

binding to TNFα: found not to bind to TNFα
SMILES: O=C(NCc1cccc(-c2ccccc2)c1)c1cc(-c2cc(C(=O)NC(C(=O)O)C3CCCCC3)nc(C(=O)N3CCCC3CN3CCCC3)c2)cc(C(=O)N2CCCC2CN2CCCC2)n1 (stereo not shown) [BIO8898]

Source: US12055549B2, “Methods of use of anti-TNFα antibodies” (UCB Biopharma SRL, priority 2015, dated 2024)
